Reference: the CheMixHub ionic liquid set

Test: xn = mol fraction of the nth substance listed
Conditions: 288.15 K, 101 kPa

Cc1ncc(C[n+]2csc(CCO)c2C)c(N)n1.Cl.[Cl-] + CCCCCCCCCCCCOS(=O)(=O)[O-].[Na+] + O
Conditions | electrical conductivity [S/m]
x2 = 0, x1 = 1.8e-07 | 0.00237
x2 = 0, x1 = 9e-07 | 0.0045
x2 = 0, x1 = 1.8e-06 | 0.00578
x2 = 7.35e-06, x1 = 1.8e-07 | 0.00538
x2 = 7.35e-06, x1 = 9e-07 | 0.0077
x2 = 7.35e-06, x1 = 1.8e-06 | 0.00928
x2 = 1.463e-05, x1 = 1.8e-07 | 0.00837
x2 = 1.463e-05, x1 = 9e-07 | 0.0109
x2 = 1.463e-05, x1 = 1.8e-06 | 0.0127
x2 = 2.18e-05, x1 = 1.8e-07 | 0.0112
x2 = 2.18e-05, x1 = 9e-07 | 0.0139
x2 = 2.18e-05, x1 = 1.8e-06 | 0.016
x2 = 2.901e-05, x1 = 1.8e-07 | 0.0139
x2 = 2.901e-05, x1 = 9e-07 | 0.0169
x2 = 2.901e-05, x1 = 1.8e-06 | 0.0192
x2 = 3.604e-05, x1 = 1.8e-07 | 0.0167
x2 = 3.604e-05, x1 = 9e-07 | 0.0197
x2 = 3.604e-05, x1 = 1.8e-06 | 0.0224
x2 = 4.307e-05, x1 = 1.8e-07 | 0.0194
x2 = 4.307e-05, x1 = 9e-07 | 0.0225
x2 = 4.307e-05, x1 = 1.8e-06 | 0.0255
x2 = 4.991e-05, x1 = 1.8e-07 | 0.0221
x2 = 4.991e-05, x1 = 9e-07 | 0.0253
x2 = 4.991e-05, x1 = 1.8e-06 | 0.0285
x2 = 5.676e-05, x1 = 1.8e-07 | 0.0248
x2 = 5.676e-05, x1 = 9e-07 | 0.0281
x2 = 5.676e-05, x1 = 1.8e-06 | 0.0314
x2 = 6.361e-05, x1 = 1.8e-07 | 0.0274
x2 = 6.361e-05, x1 = 9e-07 | 0.0307
x2 = 6.361e-05, x1 = 1.8e-06 | 0.0342
x2 = 7.027e-05, x1 = 1.8e-07 | 0.0299
x2 = 7.027e-05, x1 = 9e-07 | 0.0332
x2 = 7.028e-05, x1 = 1.8e-06 | 0.037
x2 = 7.694e-05, x1 = 1.8e-07 | 0.0324
x2 = 7.694e-05, x1 = 9e-07 | 0.0357
x2 = 7.694e-05, x1 = 1.8e-06 | 0.0397
x2 = 8.361e-05, x1 = 1.8e-07 | 0.0349
x2 = 8.361e-05, x1 = 9e-07 | 0.0382
x2 = 8.361e-05, x1 = 1.8e-06 | 0.0425
x2 = 9.009e-05, x1 = 1.8e-07 | 0.0374
x2 = 9.009e-05, x1 = 9e-07 | 0.0407
x2 = 9.009e-05, x1 = 1.8e-06 | 0.0452
x2 = 9.658e-05, x1 = 1.8e-07 | 0.0398
x2 = 9.658e-05, x1 = 9e-07 | 0.0431
x2 = 9.658e-05, x1 = 1.8e-06 | 0.0478
x2 = 0.0001031, x1 = 1.8e-07 | 0.0422
x2 = 0.0001031, x1 = 9e-07 | 0.0456
x2 = 0.0001031, x1 = 1.8e-06 | 0.0503
x2 = 0.0001094, x1 = 1.8e-07 | 0.0446
x2 = 0.0001094, x1 = 9e-07 | 0.048
x2 = 0.0001094, x1 = 1.8e-06 | 0.0522
x2 = 0.0001157, x1 = 1.8e-07 | 0.0465
x2 = 0.0001157, x1 = 9e-07 | 0.0502
x2 = 0.0001157, x1 = 1.8e-06 | 0.0539
x2 = 0.000122, x1 = 1.8e-07 | 0.0486
x2 = 0.000122, x1 = 9e-07 | 0.0523
x2 = 0.000122, x1 = 1.8e-06 | 0.0555
x2 = 0.0001281, x1 = 1.8e-07 | 0.0508
x2 = 0.0001281, x1 = 9e-07 | 0.0541
x2 = 0.0001281, x1 = 1.8e-06 | 0.0571
x2 = 0.0001342, x1 = 1.8e-07 | 0.0527
x2 = 0.0001342, x1 = 9e-07 | 0.0558
x2 = 0.0001342, x1 = 1.8e-06 | 0.0587
x2 = 0.0001404, x1 = 1.8e-07 | 0.0545
x2 = 0.0001404, x1 = 9e-07 | 0.0573
x2 = 0.0001404, x1 = 1.8e-06 | 0.0601
x2 = 0.0001465, x1 = 1.8e-07 | 0.0561
x2 = 0.0001465, x1 = 9e-07 | 0.0587
x2 = 0.0001465, x1 = 1.8e-06 | 0.0614
x2 = 0.0001524, x1 = 1.8e-07 | 0.0577
x2 = 0.0001524, x1 = 9e-07 | 0.0599
x2 = 0.0001524, x1 = 1.8e-06 | 0.0625
x2 = 0.0001584, x1 = 1.8e-07 | 0.059
x2 = 0.0001584, x1 = 9e-07 | 0.0611
x2 = 0.0001584, x1 = 1.8e-06 | 0.0636
x2 = 0.0001641, x1 = 1.8e-07 | 0.0602
x2 = 0.0001641, x1 = 9e-07 | 0.0622
x2 = 0.0001641, x1 = 1.8e-06 | 0.0647
x2 = 0.0001699, x1 = 1.8e-07 | 0.0613
x2 = 0.0001699, x1 = 9e-07 | 0.0633
x2 = 0.0001699, x1 = 1.8e-06 | 0.0657
x2 = 0.0001757, x1 = 1.8e-07 | 0.0622
x2 = 0.0001757, x1 = 9e-07 | 0.0643
x2 = 0.0001757, x1 = 1.8e-06 | 0.0667
x2 = 0.0001814, x1 = 1.8e-07 | 0.0632
x2 = 0.0001814, x1 = 9e-07 | 0.0654
x2 = 0.0001814, x1 = 1.8e-06 | 0.0677
x2 = 0.000187, x1 = 1.8e-07 | 0.0641
x2 = 0.000187, x1 = 9e-07 | 0.0664
x2 = 0.000187, x1 = 1.8e-06 | 0.0687
x2 = 0.0001928, x1 = 1.8e-07 | 0.0649
x2 = 0.0001928, x1 = 9e-07 | 0.0673
x2 = 0.0001928, x1 = 1.8e-06 | 0.0697
x2 = 0.0001982, x1 = 1.8e-07 | 0.0658
x2 = 0.0001982, x1 = 9e-07 | 0.0683
x2 = 0.0001982, x1 = 1.8e-06 | 0.0707
x2 = 0.0002038, x1 = 1.8e-07 | 0.0666
x2 = 0.0002038, x1 = 9e-07 | 0.0692
x2 = 0.0002038, x1 = 1.8e-06 | 0.0716
x2 = 0.0002092, x1 = 1.8e-07 | 0.0673
x2 = 0.0002092, x1 = 9e-07 | 0.0702
x2 = 0.0002092, x1 = 1.8e-06 | 0.0725
x2 = 0.0002147, x1 = 1.8e-07 | 0.0681
x2 = 0.0002148, x1 = 9e-07 | 0.0711
x2 = 0.0002148, x1 = 1.8e-06 | 0.0734
x2 = 0.00022, x1 = 1.8e-07 | 0.0689
x2 = 0.00022, x1 = 9e-07 | 0.072
x2 = 0.00022, x1 = 1.8e-06 | 0.0743
x2 = 0.0002254, x1 = 1.8e-07 | 0.0696
x2 = 0.0002254, x1 = 9e-07 | 0.0729
x2 = 0.0002254, x1 = 1.8e-06 | 0.0752
x2 = 0.0002306, x1 = 1.8e-07 | 0.0703
x2 = 0.0002306, x1 = 9e-07 | 0.0739
x2 = 0.0002306, x1 = 1.8e-06 | 0.0761
x2 = 0.0002358, x1 = 1.8e-07 | 0.071
x2 = 0.0002358, x1 = 9e-07 | 0.0747
x2 = 0.0002358, x1 = 1.8e-06 | 0.077
x2 = 0.0002411, x1 = 1.8e-07 | 0.0717
x2 = 0.0002411, x1 = 9e-07 | 0.0756
x2 = 0.0002411, x1 = 1.8e-06 | 0.0778
